# Measured values as given in PubChem BioAssay AID330 (DTP/NCI, 2004).
# Values joined by “and” are separate entries in the source; they are usually repeats but may differ in a detail not shown here. Identical values can stand only once. Inconclusive results and toxic doses are left out.
# System: P388 leukemia ip, CD2F1 mice, survival T/C
# Test: NCI In Vivo Anticancer Drug Screen. Data for tumor model P388 Leukemia (intraperitoneal) in CD2F1 (CDF1) mice
# Settings: endpoint: median survival time, higher = longer survival
# How it was run: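 Mice carrying the transplanted tumor received test compound or vehicle. Survival was recorded in each group, and the value is the treated-group measurement divided by that of the vehicle-treated control group.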
# [1] = dose: 60.0 mg/kg/injection, schedule: Q01DX005 (ip), vehicle: saline with Tween-80
# [2] = dose: 120.0 mg/kg/injection, schedule: Q01DX005 (ip), vehicle: saline with Tween-80
# [3] = dose: 240.0 mg/kg/injection, schedule: Q01DX005 (ip), vehicle: saline with Tween-80
# [4] = dose: 6.25 mg/kg/injection, schedule: Q01DX009 (ip), vehicle: saline with Tween-80
# [5] = dose: 12.5 mg/kg/injection, schedule: Q01DX009 (ip), vehicle: saline with Tween-80
# [6] = dose: 25.0 mg/kg/injection, schedule: Q01DX009 (ip), vehicle: saline with Tween-80
# [7] = dose: 50.0 mg/kg/injection, schedule: Q01DX009 (ip), vehicle: saline with Tween-80
# [8] = dose: 100.0 mg/kg/injection, schedule: Q01DX009 (ip), vehicle: saline with Tween-80
# [9] = dose: 200.0 mg/kg/injection, schedule: Q01DX009 (ip), vehicle: saline with Tween-80
# [10] = dose: 50.0 mg/kg/injection, schedule: Q01DX005 (ip), vehicle: saline with Tween-80
# [11] = dose: 100.0 mg/kg/injection, schedule: Q01DX005 (ip), vehicle: saline with Tween-80
# [12] = dose: 200.0 mg/kg/injection, schedule: Q01DX005 (ip), vehicle: saline with Tween-80
# [13] = dose: 60.0 mg/kg/injection, schedule: Q01DX005 (ip), vehicle: Klucel (hydroxypropylcellulose) (HPC)
# [14] = dose: 120.0 mg/kg/injection, schedule: Q01DX005 (ip), vehicle: Klucel (hydroxypropylcellulose) (HPC)
# [15] = dose: 240.0 mg/kg/injection, schedule: Q01DX005 (ip), vehicle: Klucel (hydroxypropylcellulose) (HPC)
# [16] = dose: 12.5 mg/kg/injection, schedule: Q01DX005 (ip), vehicle: saline
# [17] = dose: 25.0 mg/kg/injection, schedule: Q01DX005 (ip), vehicle: saline
# [18] = dose: 50.0 mg/kg/injection, schedule: Q01DX005 (ip), vehicle: Klucel (hydroxypropylcellulose) (HPC)
# [19] = dose: 100.0 mg/kg/injection, schedule: Q01DX005 (ip), vehicle: Klucel (hydroxypropylcellulose) (HPC)
# [20] = dose: 200.0 mg/kg/injection, schedule: Q01DX005 (ip), vehicle: Klucel (hydroxypropylcellulose) (HPC)
structure (smiles),measurement,setting,value
O=C1c2c(O)ccc(Cl)c2C(=O)C2CC=CCC12 (configuration not stated),T/C,"dose: 50.0 mg/kg/injection, schedule: Q04DX003 (ip), vehicle: DMSO",94 % of control
same,T/C,"dose: 100.0 mg/kg/injection, schedule: Q04DX003 (ip), vehicle: DMSO",88 % of control
same,T/C,"dose: 200.0 mg/kg/injection, schedule: Q04DX003 (ip), vehicle: DMSO",87 % of control
COc1cc(C(=O)CC(=O)CCC(=O)Nc2ccc(C)c(C)c2)ccc1O,T/C,[1],102 % of control
same,T/C,[2],104 % of control
same,T/C,[3],102 % of control
C1CCCN(N2CCOCC2)CC1,T/C,"dose: 100.0 mg/kg/injection, schedule: Q01DX001 (ip), vehicle: saline",104 % of control
same,T/C,"dose: 200.0 mg/kg/injection, schedule: Q01DX001 (ip), vehicle: saline",98 % of control
same,T/C,"dose: 400.0 mg/kg/injection, schedule: Q01DX001 (ip), vehicle: saline",101 % of control
CC1(CO)CSC(Nc2ccc(Cl)c(Cl)c2)=N1 (configuration not stated),T/C,"dose: 3.12 mg/kg/injection, schedule: Q01DX009 (ip), vehicle: saline with Tween-80",101 % of control
same,T/C,[4],100 % of control and 98 % of control
same,T/C,[5],102 % of control
same,T/C,[6],104 % of control
same,T/C,[7],100 % of control
same,T/C,[8],113 % of control
same,T/C,[9],98 % of control
CN=C1N=C(c2ccc(C(C)(C)C)cc2)C(O)(c2ccc(C(C)(C)C)cc2)N1 (configuration not stated),T/C,"dose: 25.0 mg/kg/injection, schedule: Q04DX002 (ip), vehicle: saline with Tween-80",104 % of control
same,T/C,"dose: 50.0 mg/kg/injection, schedule: Q04DX002 (ip), vehicle: saline with Tween-80",117 % of control
CCOC(=O)C1NC(=O)C(C(=O)OCC)NC1=O (configuration not stated),T/C,[10],96 % of control
same,T/C,[11],92 % of control
same,T/C,[12],93 % of control
Cc1ncc(CO)c2c1OC(C)(C)OC2,T/C,[10],100 % of control
same,T/C,[11],107 % of control
same,T/C,[12],100 % of control
Cc1cc(NCCN(C(C)C)C(C)C)nc(Nc2nc3cc(Cl)c(Cl)cc3[nH]2)n1,T/C,"dose: 6.25 mg/kg/injection, schedule: Q01DX009 (ip), vehicle: saline sonified",100 % of control
same,T/C,"dose: 12.5 mg/kg/injection, schedule: Q01DX009 (ip), vehicle: saline sonified",100 % of control
COc1ccc(-c2cscc2N)cc1,T/C,[13],114 % of control
same,T/C,[14],118 % of control
same,T/C,[15],97 % of control
O=C(O)CCSSCCCS(=O)O,T/C,"dose: 50.0 mg/kg/injection, schedule: Q01DX005 (ip), vehicle: saline",109 % of control
same,T/C,"dose: 100.0 mg/kg/injection, schedule: Q01DX005 (ip), vehicle: saline",114 % of control
same,T/C,"dose: 200.0 mg/kg/injection, schedule: Q01DX005 (ip), vehicle: saline",124 % of control
CCC(=N\N=C(N)N)/C(C)=N\N=C(N)N,T/C,[10],99 % of control
same,T/C,[11],96 % of control
ClCCCN1CCN(CCCCl)CC1,T/C,"dose: 12.5 mg/kg/injection, schedule: Q01DX009 (ip), vehicle: distilled water + alcohol",113 % of control
same,T/C,"dose: 25.0 mg/kg/injection, schedule: Q01DX009 (ip), vehicle: distilled water + alcohol",121 % of control
same,T/C,"dose: 100.0 mg/kg/injection, schedule: Q01DX009 (ip), vehicle: distilled water + alcohol",157 % of control and 190 % of control
C=C1CCC(=O)NC1=O,T/C,"dose: 6.25 mg/kg/injection, schedule: Q01DX005 (ip), vehicle: saline",105 % of control
same,T/C,[16],102 % of control
same,T/C,[17],99 % of control
same,T/C,[10],116 % of control
O=C1Oc2ccccc2CC1C(=O)c1ccc(Cl)cc1 (configuration not stated),T/C,[10],106 % of control
same,T/C,[11],103 % of control
same,T/C,[12],100 % of control
CC(Nc1ccc([N+](=O)[O-])c2nonc12)C(=O)O (configuration not stated),T/C,[4],108 % of control
same,T/C,[5],100 % of control
same,T/C,[6],111 % of control
same,T/C,[9],86 % of control
O=S1(=O)OCCCCO1,T/C,[16],107 % of control
same,T/C,[17],100 % of control
Cc1cc(C(=O)O)sn1,T/C,"dose: 3.12 mg/kg/injection, schedule: Q01DX009 (ip), vehicle: saline",100 % of control
same,T/C,"dose: 6.25 mg/kg/injection, schedule: Q01DX009 (ip), vehicle: saline",100 % of control
same,T/C,"dose: 12.5 mg/kg/injection, schedule: Q01DX009 (ip), vehicle: saline",96 % of control
same,T/C,"dose: 25.0 mg/kg/injection, schedule: Q01DX009 (ip), vehicle: saline",100 % of control
O=C(O)C(=O)O,T/C,[16],98 % of control
same,T/C,[17],97 % of control
same,T/C,[10],92 % of control
COc1c(OC)c(OC)c(-c2cc(=O)c3c(OC)cccc3o2)c(OC)c1OC,T/C,"dose: 25.0 mg/kg/injection, schedule: Q01DX005 (ip), vehicle: distilled water + Tween-80 + alcohol",102 % of control
same,T/C,"dose: 50.0 mg/kg/injection, schedule: Q01DX005 (ip), vehicle: distilled water + Tween-80 + alcohol",96 % of control
same,T/C,"dose: 100.0 mg/kg/injection, schedule: Q01DX005 (ip), vehicle: distilled water + Tween-80 + alcohol",95 % of control
O=C(O)c1cccc2c1Cc1cc([N+](=O)[O-])ccc1-2,T/C,[18],95 % of control
same,T/C,[19],103 % of control
CSC(=S)N/N=C(/C)c1ccco1,T/C,[7],105 % of control
same,T/C,[8],95 % of control
C/C=C(/C)C(=O)OC1CC(C)=CC(OC(=O)/C(C)=C\C)[C@]2(C)C1[C@](O)(C(C)C)C[C@H]2OC(C)=O (some centres not stated),T/C,"dose: 5.0 mg/kg/injection, schedule: Q01DX005 (ip), vehicle: Klucel + Tween-80",95 % of control
same,T/C,"dose: 10.0 mg/kg/injection, schedule: Q01DX005 (ip), vehicle: Klucel + Tween-80",97 % of control
same,T/C,"dose: 20.0 mg/kg/injection, schedule: Q01DX005 (ip), vehicle: Klucel + Tween-80",100 % of control
same,T/C,"dose: 40.0 mg/kg/injection, schedule: Q01DX005 (ip), vehicle: Klucel + Tween-80",91 % of control
COC(=O)C(=O)C1CCc2c(C(=O)OC)nc3[nH]n(-c4ccccc4)c(=O)c3c21 (configuration not stated),T/C,[1],111 % of control
same,T/C,[2],94 % of control
same,T/C,[3],88 % of control
CN(C)CCCNc1c2ccccc2nc2c1c(=O)n(C)c(=O)n2C,T/C,"dose: 60.0 mg/kg/injection, schedule: Q01DX005 (ip), vehicle: saline",101 % of control
same,T/C,"dose: 120.0 mg/kg/injection, schedule: Q01DX005 (ip), vehicle: saline",107 % of control
CCOC(=O)c1cc(Cl)nc2ccc3ccccc3c12,T/C,[10],95 % of control
same,T/C,[11],98 % of control
same,T/C,[12],100 % of control
COc1ccc(-n2c(C)nc3c(cnn3C)c2=O)cc1,T/C,"dose: 25.0 mg/kg/injection, schedule: Q01DX005 (ip), vehicle: Klucel (hydroxypropylcellulose) (HPC)",101 % of control and 96 % of control
same,T/C,[18],100 % of control and 101 % of control and 97 % of control
same,T/C,[19],108 % of control and 115 % of control and 95 % of control
same,T/C,[20],99 % of control and 120 % of control and 97 % of control
N#C/C(=C\c1ccc(Cl)cc1)C(=O)N/N=C/c1ccc(Cl)cc1,T/C,"dose: 50.0 mg/kg/injection, schedule: Q01DX009 (ip), vehicle: saline",97 % of control
same,T/C,"dose: 100.0 mg/kg/injection, schedule: Q01DX009 (ip), vehicle: saline",97 % of control
same,T/C,"dose: 200.0 mg/kg/injection, schedule: Q01DX009 (ip), vehicle: saline",101 % of control
COc1ccc(OC)c(/C=C2/C(=O)N(c3ccccc3)N=C2C)c1,T/C,[13],107 % of control
same,T/C,[14],105 % of control
same,T/C,[15],107 % of control
CCOP(=S)(N/N=C/c1ccc(C)s1)OCC,T/C,[18],110 % of control
same,T/C,[19],112 % of control
same,T/C,[20],117 % of control
COC(=O)C(CCC1NCCc2c1[nH]c1ccccc21)(Sc1ccccc1)Sc1ccccc1 (configuration not stated),T/C,[13],108 % of control
same,T/C,[14],105 % of control
same,T/C,[15],103 % of control
COc1cccc(C(O)c2ccncc2C)c1OC (configuration not stated),T/C,"dose: 12.5 mg/kg/injection, schedule: Q01DX009 (ip), vehicle: water",100 % of control
same,T/C,"dose: 25.0 mg/kg/injection, schedule: Q01DX009 (ip), vehicle: water",99 % of control
same,T/C,"dose: 50.0 mg/kg/injection, schedule: Q01DX009 (ip), vehicle: water",100 % of control
same,T/C,"dose: 100.0 mg/kg/injection, schedule: Q01DX009 (ip), vehicle: water",99 % of control
same,T/C,"dose: 200.0 mg/kg/injection, schedule: Q01DX009 (ip), vehicle: water",99 % of control
